Broadly, the MIC is the lowest concentration that inhibits growth of the organism. A high value points to weaker potency.

Converted amounts (≈) assume the structure as drawn.

For 12 compounds, MIC results are on record in ChEMBL document CHEMBL1146010, “Synthesis and in vitro antimycobacterial activity of N1-nicotinoyl-3-(4'-hydroxy-3'-methyl phenyl)-5-[(sub)phenyl]-2-pyrazolines” (2006).

The test concerns Mycobacterium tuberculosis. Kind of test: Antimycobacterial activity against isoniazid-resistant Mycobacterium tuberculosis by agar dilution method. The format is functional.
With `Cc1cc(C2=NN(C(=O)c3ccncc3)C(c3cccc([N+](=O)[O-])c3)C2)ccc1O` (configuration not stated), the MIC came out at 7.75 µM (≈ 3.12 µg/mL). In the case of `COc1ccc(C2CC(c3ccc(O)c(C)c3)=NN2C(=O)c2ccncc2)c(OC)c1OC` (configuration not stated) it was 0.87 µM (≈ 0.389 µg/mL). As for `Cc1cc(C2=NN(C(=O)c3ccncc3)C(c3ccco3)C2)ccc1O` (configuration not stated), 0.58 µM (≈ 0.201 µg/mL) was the least that counted as inhibitory (MIC).

The compound `Cc1cc(C2=NN(C(=O)c3ccncc3)C(c3c(Cl)cccc3Cl)C2)ccc1O` (configuration not stated) had a minimum inhibitory concentration (MIC) of 0.23 µM (≈ 0.098 µg/mL). The value for `Cc1cc(C2=NN(C(=O)c3ccncc3)C(c3ccc(Cl)cc3)C2)ccc1O` (configuration not stated) was 3.98 µM (≈ 1.56 µg/mL); that for `COc1ccc(C2CC(c3ccc(O)c(C)c3)=NN2C(=O)c2ccncc2)cc1` (configuration not stated) was 8.05 µM (≈ 3.12 µg/mL). For the compound `Cc1cc(C2=NN(C(=O)c3ccncc3)C(c3ccccc3)C2)ccc1O` (configuration not stated), 4.36 µM (≈ 1.56 µg/mL) was the least that counted as inhibitory (MIC). On to `COc1ccc(C2CC(c3ccc(O)c(C)c3)=NN2C(=O)c2ccncc2)cc1OC` (configuration not stated), for which the MIC turned out to be 0.93 µM (≈ 0.388 µg/mL). The value for `Cc1cc(C2=NN(C(=O)c3ccncc3)C(c3ccc(N(C)C)cc3)C2)ccc1O` (configuration not stated) was 1.95 µM (≈ 0.781 µg/mL); that for `Cc1cc(C2=NN(C(=O)c3ccncc3)C(c3ccccc3Cl)C2)ccc1O` (configuration not stated) was 0.26 µM (≈ 0.102 µg/mL). As to `Cc1cc(C2=NN(C(=O)c3ccncc3)C(c3ccc(F)cc3)C2)ccc1O` (configuration not stated), 0.54 µM (≈ 0.203 µg/mL) was the least that counted as inhibitory (MIC). The value for `NNC(=O)c1ccncc1` [ISONIAZID] was 11.4 µM (≈ 1.56 µg/mL).
